The subject of assay [1] is U-87 MG. As to the kind of experiment: Cytotoxicity against human U87MG cells assessed as reduction in cell viability by WST1 assay. (In general: Formazan colour is commonly taken as a measure of viable cells.)
Assay [2] deals with HCT-116. As to the kind of experiment: Cytotoxicity against human HCT116 cells assessed as reduction in cell viability by WST1 assay.
Assay [3] deals with U-87 MG. In words: Inhibition of colony formation in human U87MG cells.
The subject of assay [4] is HCT-116. In words: Inhibition of colony formation in human HCT116 cells.
For assay [5], the system named is U-87 MG. Particulars: Homo sapiens; U-87MG ATCC.

Structures are written as SMILES.

Consider seven compounds from ChEMBL document CHEMBL4007480, “Synthesis of novel 1,2,4-triazine scaffold as FAK inhibitors with antitumor activity” (Bioorg Med Chem Lett, 2017).

A word on the IC50: it is the concentration that inhibits the measured activity by half.

As to `CNC(=O)c1ccccc1Nc1nc(Nc2ccc(CN)cc2)nnc1Cl`, the IC50 came out at 2400 nM in the assay on U-87 MG [1], 1800 nM in the assay with HCT-116 [2], 14 nM with U-87 MG [3] and 1100 nM in the assay with HCT-116 [4]. The inhibition result with U-87 MG [5] is “Dose-dependent effect”.

On to `COc1cc(Nc2nnc(Cl)c(Nc3cccc(NS(C)(=O)=O)c3)n2)cc(OC)c1OC`, for which the IC50 in the assay on U-87 MG [1] came to 12500 nM; in the assay on HCT-116 [2] it was 14800 nM; in the assay on U-87 MG [3], 70 nM; with HCT-116 [4], 60 nM. The inhibition result in the assay on U-87 MG [5] was “Dose-dependent effect”.

Turning to `CNC(=O)c1ccccc1Nc1nc(Nc2cc(OC)c(OC)c(OC)c2)nnc1Cl`, the 50% inhibitory concentration (IC50) in the assay with U-87 MG [1] came out at 17000 nM; with HCT-116 [2], 14900 nM; in the assay with U-87 MG [3], 1700 nM; in the assay on HCT-116 [4], 2100 nM. Further, in the assay with U-87 MG [5], the inhibition entry was “Dose-dependent effect”.

As for `CNC(=O)c1ccccc1Nc1nc(Nc2ccc(N3CCOCC3)cc2)nnc1Cl`, the half-maximal inhibitory concentration (IC50) in the assay on U-87 MG [1] came to 10100 nM; with HCT-116 [2], 500 nM; with U-87 MG [3], 700 nM; in the assay on HCT-116 [4], 1700 nM. In the assay with U-87 MG [5], the inhibition entry was “Dose-dependent effect”.

Consider `CNC(=O)c1ccccc1Nc1nc(Nc2ccc(N3CCOCC3)cc2OC)nnc1Cl`, for which the IC50 in the assay on U-87 MG [1] amounted to 13300 nM; in the assay on HCT-116 [2] it was 190 nM; with U-87 MG [3], 1500 nM; with HCT-116 [4], 1000 nM. The inhibition entry in the assay with U-87 MG [5] is “Dose-dependent effect”.

Regarding `CNC(=O)c1ccccc1Nc1nc(Nc2ccc(N3CCOCC3)cc2OC)ncc1Cl`, the IC50 in the assay on U-87 MG [1] is 1300 nM; in the assay with HCT-116 [2] it was 390 nM; with U-87 MG [3] it was 170 nM; in the assay on HCT-116 [4], 270 nM.

As to `CNC(=O)c1ccccc1Nc1nc(Nc2cc(C)c(Cl)cc2OC)nnc1Cl`, the IC50 was found to be 9200 nM in the assay on U-87 MG [1], 5800 nM in the assay on HCT-116 [2], 500 nM in the assay on U-87 MG [3] and 4500 nM with HCT-116 [4]. In the assay on U-87 MG [5], the inhibition result was “Dose-dependent effect”.
